Data: PubChem BioAssay (NCI)
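48-hour exposure; five concentrations; linearly interpolated endpoints. GI50 is the concentration that inhibits growth by half. Definition used: TGI = concentration required for complete inhibition of growth.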

Key:
Assay in all cases: NCI tumour cell line growth inhibition, 48 h
MOLT-4 leukemia = system: MOLT-4 leukemia
TK-10 renal = system: TK-10 renal
HCT-15 colon = system: HCT-15 colon
A498 renal = system: A498 renal
SK-MEL-28 melanoma = system: SK-MEL-28 melanoma
EKVX NSCLC = system: EKVX NSCLC
UACC-62 melanoma = system: UACC-62 melanoma
NCI-H460 lung = system: NCI-H460 lung
OVCAR-3 ovarian = system: OVCAR-3 ovarian
HS 578T breast = system: HS 578T breast

Molecule Cc1ccc(Sc2sc(-c3ccccc3)nc2[P+](c2ccccc2)(c2ccccc2)c2ccccc2)cc1 has a GI50 (MOLT-4 leukemia) of 0.363 µM, a TGI (MOLT-4 leukemia) of 1.59 µM and a GI50 (TK-10 renal) of 0.336 µM. It also gave a TGI (TK-10 renal) of 1.64 µM, a GI50 (HCT-15 colon) of 0.3 µM and a TGI (HCT-15 colon) of 1.14 µM. For the same molecule, the GI50 (A498 renal) was 0.137 µM, the TGI (A498 renal) was 0.568 µM and the GI50 (SK-MEL-28 melanoma) was 0.605 µM. It also gave a TGI (SK-MEL-28 melanoma) of 1.88 µM, a GI50 (EKVX NSCLC) of 0.266 µM and a TGI (EKVX NSCLC) of 0.932 µM. For the same molecule, the GI50 (UACC-62 melanoma) was 0.317 µM, the TGI (UACC-62 melanoma) was 1.25 µM and the GI50 (NCI-H460 lung) was 0.314 µM. The TGI (NCI-H460 lung) was 1.09 µM, the GI50 (OVCAR-3 ovarian) was 0.346 µM and the TGI (OVCAR-3 ovarian) was 1.23 µM.

For N#C/C(=C\c1ccc(C(O)P(=O)(O)O)cc1)C(N)=O (configuration not stated), the TGI (MOLT-4 leukemia) was greater than 100 µM, the TGI (TK-10 renal) was greater than 100 µM and the TGI (HCT-15 colon) was greater than 100 µM. The TGI (A498 renal) was greater than 100 µM, the TGI (SK-MEL-28 melanoma) was greater than 100 µM and the TGI (EKVX NSCLC) was greater than 100 µM. The TGI (UACC-62 melanoma) was greater than 100 µM, the TGI (NCI-H460 lung) was greater than 100 µM and the TGI (OVCAR-3 ovarian) was greater than 100 µM.

Nc1ncnc2c1cnn2Cc1ccc(Cl)cc1 showed a TGI (MOLT-4 leukemia) greater than 100 µM, a TGI (TK-10 renal) greater than 100 µM and a TGI (HCT-15 colon) greater than 100 µM. It also gave a TGI (A498 renal) of 68.6 µM, a TGI (HS 578T breast) greater than 100 µM and a GI50 (SK-MEL-28 melanoma) of 74.8 µM. It also gave a TGI (SK-MEL-28 melanoma) greater than 100 µM, a GI50 (UACC-62 melanoma) greater than 100 µM and a TGI (UACC-62 melanoma) greater than 100 µM. It also gave a TGI (NCI-H460 lung) greater than 100 µM and a TGI (OVCAR-3 ovarian) greater than 100 µM.

Work on NC(=O)c1ccc2nc3c(n2c1)C(=O)C(=O)c1ccccc1-3 yielded a GI50 (MOLT-4 leukemia) of 1.02 µM, a TGI (MOLT-4 leukemia) of 4.21 µM and a GI50 (TK-10 renal) of 1.82 µM. For the same molecule, the TGI (TK-10 renal) was 3.23 µM, the GI50 (HCT-15 colon) was 1.46 µM and the TGI (HCT-15 colon) was 3.55 µM. For the same molecule, the GI50 (A498 renal) was 1.73 µM, the TGI (A498 renal) was 3.14 µM and the GI50 (SK-MEL-28 melanoma) was 1.07 µM. It also gave a TGI (SK-MEL-28 melanoma) of 2.29 µM, a GI50 (EKVX NSCLC) of 1.65 µM and a TGI (EKVX NSCLC) of 3.01 µM. For the same molecule, the GI50 (UACC-62 melanoma) was 0.545 µM, the TGI (UACC-62 melanoma) was 1.77 µM and the GI50 (NCI-H460 lung) was 1.53 µM. It also gave a TGI (NCI-H460 lung) of 3.34 µM, a GI50 (OVCAR-3 ovarian) of 0.24 µM and a TGI (OVCAR-3 ovarian) of 0.63 µM.

CCNCCCn1c2c(c3ccc([N+](=O)[O-])cc3c1=O)C(=O)c1cc(OC)cnc1-2 gave a GI50 (MOLT-4 leukemia) of 0.029 µM, a TGI (MOLT-4 leukemia) of 0.25 µM and a GI50 (TK-10 renal) of 0.294 µM. The TGI (TK-10 renal) was 1.47 µM, the GI50 (HCT-15 colon) was 0.184 µM and the TGI (HCT-15 colon) was 1.26 µM. The GI50 (HS 578T breast) was 1.05 µM, the TGI (HS 578T breast) was 4.33 µM and the GI50 (SK-MEL-28 melanoma) was 0.227 µM. For the same molecule, the TGI (SK-MEL-28 melanoma) was 1.56 µM, the GI50 (EKVX NSCLC) was 0.204 µM and the TGI (EKVX NSCLC) was 1.27 µM. It also gave a GI50 (UACC-62 melanoma) of 0.0267 µM, a TGI (UACC-62 melanoma) of 0.168 µM and a GI50 (NCI-H460 lung) of 0.0321 µM. It also gave a TGI (NCI-H460 lung) of 0.376 µM, a GI50 (OVCAR-3 ovarian) of 0.0616 µM and a TGI (OVCAR-3 ovarian) of 0.302 µM.

N#CC1C2CCC3(CC2CCN1C(=O)c1ccccc1)OCCO3 (configuration not stated) gave a TGI (MOLT-4 leukemia) greater than 100 µM, a TGI (TK-10 renal) greater than 100 µM and a TGI (HCT-15 colon) greater than 100 µM. It also gave a TGI (A498 renal) greater than 100 µM, a TGI (SK-MEL-28 melanoma) greater than 100 µM and a TGI (EKVX NSCLC) greater than 100 µM. The TGI (UACC-62 melanoma) was greater than 100 µM, the TGI (NCI-H460 lung) was greater than 100 µM and the TGI (OVCAR-3 ovarian) was greater than 100 µM.

CC1(O)CCC2(C#N)CCC1C2O (configuration not stated) gave a TGI (MOLT-4 leukemia) greater than 100 µM, a TGI (TK-10 renal) greater than 100 µM and a TGI (HCT-15 colon) greater than 100 µM. The TGI (A498 renal) was greater than 100 µM, the TGI (SK-MEL-28 melanoma) was greater than 100 µM and the TGI (EKVX NSCLC) was greater than 100 µM. The TGI (UACC-62 melanoma) was greater than 100 µM, the TGI (NCI-H460 lung) was greater than 100 µM and the TGI (OVCAR-3 ovarian) was greater than 100 µM.

CSc1ncnc2c1CCN2 was tested, and the GI50 (TK-10 renal) was greater than 100 µM, the TGI (TK-10 renal) was greater than 100 µM and the TGI (HCT-15 colon) was greater than 100 µM. The GI50 (SK-MEL-28 melanoma) was greater than 100 µM, the TGI (SK-MEL-28 melanoma) was greater than 100 µM and the GI50 (EKVX NSCLC) was greater than 100 µM. It also gave a TGI (EKVX NSCLC) greater than 100 µM, a GI50 (UACC-62 melanoma) greater than 100 µM and a TGI (UACC-62 melanoma) greater than 100 µM. For the same molecule, the GI50 (OVCAR-3 ovarian) was greater than 100 µM.
